Laboratory results taken from US7968537B2, “Pyrimidine compound and pests controlling composition containing the same” (Sumitomo Chemical Company, Limited, priority 2003, dated 2011).

Tested on: Western flower thrips (Frankliniella occidentalis)
Test: Test Example 2: Western flower thrips larvae on treated cucumber leaf
Format: in vivo
Conditions: 500 ppm, 20 ml/cup on cucumber; thirty larvae set free on cut first true leaf; after seven days
Procedure: A formulation of each test compound obtained according to Formulation Example 5 was diluted with water so that the active ingredient concentration came to 500 ppm to prepare a test spray liquid. The seeds of cucumber were planted in a polyethylene cup, and grown until their first foliage leaves developed, and then a test spray liquid was applied at a ratio of 20 ml/cup to the plant. After the liquid sprayed to the cucumber were dried, the first true leaf was cut off and placed on a filter paper (70 mm in diameter) impregnated with water in a polyethylene cup (110 mm in diameter). Thirty larvae of Western flower thrips (Frankliniella occidentalis) were set free on the first true leaf, which was covered with a polyethylene cup. After seven days, the number of surviving pests was examined.

| Structure (SMILES) | number of surviving pests |
| --- | --- |
| CC#CCOc1cc(N2C[C@@H](C)C[C@H](C)C2)ncn1 (relative stereo) [Compound (44), 4-(2-butynyloxy)-6-(trans-3,5-dimethylpiperidino)pyrimidine] | 0 |
| CC#CCOc1nc(F)nc(N2CC(C)CC(C)C2)c1Cl (stereo not shown) [Compound (52), 5-chloro-4-(2-butynyloxy)-2-fluoro-6-(3,5-dimethylpiperidino)pyrimidine] | 0 |
| CC#CCOc1ncnc(N2CC=CCC2)c1F [Compound (53), 1-(6-(2-butynyloxy)-5-fluoropyrimidin-4-yl)-1,2,3,6-tetrahydropyridine] | 0 |
| CC#CCOc1cc(N2CCCC(C(F)(F)F)C2)ncn1 (stereo not shown) [Compound (24), 4-(2-butynyloxy)-6-(3-trifluoromethylpiperidino)pyrimidine] | 0 |
| CC#CCOc1cc(N2C[C@H](C)C[C@H](C)C2)ncn1 [Compound (23), 4-(2-butynyloxy)-6-(cis-3,5-dimethylpiperidino)pyrimidine] | 0 |
| CC#CCOc1ncnc(N2CC(C)CC(C)C2)c1F (stereo not shown) [Compound (4), 4-(2-butynyloxy)-5-fluoro-6-(3,5-dimethylpiperidino)pyrimidine] | 0 |
| CC#CCOc1ncnc(N2CCCCC2CC)c1F (stereo not shown) [Compound (33), 4-(2-butynyloxy)-6-(2-ethylpiperidino)-5-fluoropyrimidine] | 0 |
| CC#CCOc1ncnc(N2CCCC(C)C2)c1F (stereo not shown) [Compound (26), 4-(2-butynyloxy)-5-fluoro-6-(3-methylpiperidino)pyrimidine] | 0 |
| CC#CCOc1ncnc(N2CCCC(C)(C)C2)c1F [Compound (32), 4-(2-butynyloxy)-6-(3,3-dimethylpiperidino)-5-fluoropyrimidine] | 0 |
| CC#CCOc1ncnc(N2C[C@H](C)C[C@H](C)C2)c1F [Compound (29), 4-(2-butynyloxy)-5-fluoro-6-(cis-3,5-dimethylpiperidino)pyrimidine] | 0 |
| CC#CCOc1ncnc(N2CCCCCCC2)c1F [Compound (46), 1-(6-(2-butynyloxy)-5-fluoropyrimidin-4-yl)octahydro-1H-azocine] | 0 |
| CC#CCOc1ncnc(N2CC(C)CC(C)C2)c1F (stereo not shown) [(51), 4-(2-butynyloxy)-5-fluoro-6-(3,5-dimethylpiperidino)pyrimidine] | 0 |

Tested on: cotton aphids (Aphis gossypii)
Test: Test Example 1: spray test on cotton aphids on cucumber plants
Format: in vivo
Conditions: 500 ppm active ingredient, sprayed 20 ml/cup on cucumber with about 20 cotton aphids; 6th day after the application
Procedure: A formulation of a test compound obtained in Formulation Example 5 was diluted with water so that the active ingredient concentration came to 500 ppm to prepare a test spray liquid. The seeds of cucumber were planted in polyethylene cups and grown until their first foliage leaves developed, on which about 20 cotton aphids (Aphis gossypii) were made parasitic. After one day, the test spray liquid was sprayed at the rate of 20 ml/cup onto the cucumber plants. On the 6th day after the application, the number of cotton aphids was examined and the control value was determined by the following formula: Control value (%)={1−(Cb×Tai)/(Cai×Tb)}×100 wherein the variables in the formula have the following meanings: Cb: the number of insects before the treatment in the non-treated area; Cai: the number of insects at the time of observation in the non-treated area; Tb: the number of insects before the treatment in the treated area; and Tai: the number of insects at the time of observation in the treated area.

| Structure (SMILES) | control value [%] |
| --- | --- |
| COc1cc(N2CCCCC2)ncn1 [compound of the formula (A)] | ≤ 29 |
